Measured values from article PMC12042115 (mLife, 2025).
Like-named read-outs stand apart in the source and are kept apart here.

Tested on: wild‐type BCG cells
Assay type: cell-based, M. bovis BCG
Conditions: for Mean_Ratio (GDI5755_3d vs DMSO_3d): down-regulated, 3 d; for Mean Ratio: GDI5755_2d vs DMSO_2d; for Mean Ratio / Mean Ratio (GDI5755_2d vs DMSO_2d): up-regulated; for Mean Ratio (GDI5755_2d vs DMSO_2d): 2d

O=C(Oc1ccc(Cl)cc1)c1ccc(N2CCOCC2)c([N+](=O)[O-])c1 [GDI‐5755]
Mean_Ratio (GDI5755_3d vs DMSO_3d) (protein A0A0H3MBJ1, BCG_2011c (Rv1994c), HTH-type transcriptional regulator CmtR): 0.738 | Mean Ratio (protein A0A0H3MBK5 Phosphate-binding protein PstS3): 1.29 | Mean Ratio (protein A0A0H3MBM4 NAD(P)H nitroreductase acg): 1.30 | Mean Ratio (protein A0A0H3MBN2 Nuclear transport factor 2 domain-containing protein): 1.27 | Mean Ratio (protein A0A0H3MBN6 Amidohydrolase 3 domain-containing protein): 1.27 | Mean Ratio (GDI5755_2d vs DMSO_2d) (protein A0A0H3MBR5 Probable acetyl-/propionyl-coa carboxylase (Beta subunit) accD2): 1.32 | Mean Ratio (protein A0A0H3MBT4 Probable conserved lipoprotein LppL): 1.32 | Mean Ratio (protein A0A0H3MBZ9 Probable conserved transmembrane protein alanine and leucine rich): 1.27 | Mean_Ratio (GDI5755_3d vs DMSO_3d) (protein A0A0H3MC34, BCG_2260 (Rv2243), Malonyl CoA-acyl carrier protein transacylase fabD): 0.7 | Mean_Ratio (GDI5755_3d vs DMSO_3d) (protein A0A0H3MC70, BCG_1203c (Rv1141c), Probable enoyl-CoA hydratase echA11): 0.7 | Mean_Ratio (GDI5755_3d vs DMSO_3d) (protein A0A0H3MC82, BCG_2311 (Rv2295), CbrC family protein): 0.745 | Mean_Ratio (GDI5755_3d vs DMSO_3d) (protein A0A0H3MC88, BCG_2317 (Rv2301), Cutinase): 0.7 | Mean Ratio (protein A0A0H3MCA1 Alpha/beta hydrolase): 1.25 | Mean_Ratio (GDI5755_3d vs DMSO_3d) (protein A0A0H3MCB3, BCG_1267 (Rv1207), Dihydropteroate synthase): 0.7 | Mean Ratio (protein A0A0H3MCC0 Probable tetronasin-transport atp-binding protein ABC transporter): 1.26 | Mean Ratio (protein A0A0H3MCD2 Transmembrane ATP-binding protein ABC transporter): 1.25 | Mean_Ratio (GDI5755_3d vs DMSO_3d) (protein A0A0H3MCL1, BCG_1383 (Rv1322), ATP/GTP-binding protein): 0.7 | Mean_Ratio (GDI5755_3d vs DMSO_3d) (protein A0A0H3MCL6, BCG_2443c, AAA+ ATPase domain-containing protein): 0.751 | Mean Ratio (protein A0A0H3MD23 Possible exported conserved protein): 1.30 | Mean_Ratio (GDI5755_3d vs DMSO_3d) (protein A0A0H3MDI1, BCG_3731c (Rv1665), Possible chalcone synthase pks11): 0.7 | Mean_Ratio (GDI5755_3d vs DMSO_3d) (protein A0A0H3MDQ0, BCG_2970c (Rv2949c), Chorismate pyruvate-lyase): 0.746 | Mean_Ratio (GDI5755_3d vs DMSO_3d) (protein A0A0H3MDQ9, BCG_2994c (Rv2972c), Possible conserved membrane or exported protein): 0.756 | Mean Ratio (GDI5755_2d vs DMSO_2d) (protein A0A0H3MDS7 Probable conserved lipoprotein lppZ): 1.35 | Mean Ratio (protein A0A0H3ME30 Possible oxidoreductase): 1.30 | Mean_Ratio (GDI5755_3d vs DMSO_3d) (protein A0A0H3ME93, BCG_1959 (Rv1920), Probable membrane protein): 0.752 | Mean Ratio (protein A0A0H3MEA5 methanethiol S-methyltransferase): 1.26 | Mean Ratio (protein A0A0H3MEB3 HNH nuclease domain-containing protein): 1.25 | Mean_Ratio (GDI5755_3d vs DMSO_3d) (protein A0A0H3MEK1, BCG_3412 (Rv3342), Possible methyltransferase (Methylase)): 0.7 | Mean_Ratio (GDI5755_3d vs DMSO_3d) (protein A0A0H3MER9, BCG_3475c (Rv3405c), HTH-type transcriptional repressor): 0.758 | Mean_Ratio (GDI5755_3d vs DMSO_3d) (protein A0A0H3MEW3, BCG_3538c (Rv3473c), Possible peroxidase bpoA): 0.749 | Mean Ratio (GDI5755_2d vs DMSO_2d) (protein A0A0H3MF17 Serine protease Hip1): 1.35 | Mean Ratio (protein A0A0H3MF23 Possible CoA-transferase (Beta subunit)): 1.25 | Mean Ratio (protein A0A0H3MF38 Glycerol-3-phosphate dehydrogenase): 1.31 | Mean_Ratio (GDI5755_3d vs DMSO_3d) (protein A0A0H3MF62, BCG_2297c (Rv2282c), Probable transcription regulator (LysR family)): 0.737 | Mean_Ratio (GDI5755_3d vs DMSO_3d) (protein A0A0H3MFB8, BCG_3726c, Protease): 0.739 | Mean Ratio (protein A0A0H3MFJ3 Transcriptional regulatory protein (Probably arsR-family)): 1.25 | Mean Ratio (GDI5755_2d vs DMSO_2d) (protein A0A0H3MFK9 DSBA-like thioredoxin domain-containing protein): 1.33 | Mean Ratio (GDI5755_2d vs DMSO_2d) (protein A0A0H3MFL5 histidine kinase): 1.35 | Mean Ratio (protein A0A0H3MFN8 Probable O-antigen/lipopolysaccharide transport integral membrane protein ABC transporter rfbD): 1.29 | Mean_Ratio (GDI5755_3d vs DMSO_3d) (protein A0A0H3MFR0, BCG_2539c (Rv2518c), L,D-transpeptidase 2, ldtB/L,D-transpeptidase LdtMt2): 0.7 | Mean Ratio (protein A0A0H3MFS0 Acyltransferase): 1.28 | Mean Ratio (protein A0A0H3MFX4 Protein translocase subunit SecD): 1.31 | Mean_Ratio (GDI5755_3d vs DMSO_3d) (protein A0A0H3MG15, BCG_2663 (Rv2636), O-phosphotransferase): 0.7 | Mean Ratio (protein A0A0H3MG43 Probable antibiotic-transport ATP-binding protein ABC transporter): 1.28 | Mean Ratio (protein A0A0H3MG65 Probable conserved transmembrane protein): 1.25 | Mean Ratio (protein A0A0H3MG92 Conserved 35 kDa alanine rich protein): 1.27 | Mean Ratio (protein A0A0H3MGD9 Metal-dependent hydrolase): 1.32 | Mean_Ratio (GDI5755_3d vs DMSO_3d) (protein A0A0H3MGM3, BCG_2905 (Rv2884), Probable transcriptional regulatory protein): 0.744 | Mean Ratio (protein A0A0H3MGP1 Probable transcriptional regulatory protein (Probably tetR-family)): 1.30 | Mean Ratio (protein A0A0H3MGS1 Probable integral membrane protein): 1.30 | Mean_Ratio (GDI5755_3d vs DMSO_3d) (protein A0A0H3MGU7, BCG_3025c (Rv3003c), Acetolactate synthase): 0.7 | Mean Ratio (protein A0A0H3MH35 Hydroxylase): 1.30 | Mean_Ratio (GDI5755_3d vs DMSO_3d) (protein A0A0H3MH58, BCG_3141 (Rv3116), PRobable molybdenum cofactor biosynthesis protein moeB2): 0.7 | Mean_Ratio (GDI5755_3d vs DMSO_3d) (protein A0A0H3MH84, BCG_3167c (Rv3144c), PPE family protein): 0.7 | Mean_Ratio (GDI5755_3d vs DMSO_3d) (protein A0A0H3MHH8, BCG_3287c (Rv3258c), DUF3499 domain-containing protein): 0.757 | Mean Ratio (GDI5755_2d vs DMSO_2d) (protein A0A0H3MHJ0 Probable metal cation-transporting P-type atpase C ctpC): 1.38 | Mean_Ratio (GDI5755_3d vs DMSO_3d) (protein A0A0H3MIJ3, BCG_3667c (Rv3603c), Conserved hypothetical alanine and leucine rich protein): 0.7 | Mean Ratio (protein A0A0H3MJ41 Uncharacterized protein): 1.29 | Mean_Ratio (GDI5755_3d vs DMSO_3d) (protein A1KF76, BCG_0293c (Rv0255c), Cobyric acid synthase): 0.7 | Mean Ratio (protein A1KFU9 Heparin-binding hemagglutinin): 1.29 | Mean_Ratio (GDI5755_3d vs DMSO_3d) (protein A1KGJ8, BCG_0767 (Rv0717), Small ribosomal subunit protein uS14B): 0.746 | Mean Ratio (protein A1KHB8 Signal transduction histidine-protein kinase/phosphatase MprB): 1.30 | Mean_Ratio (GDI5755_3d vs DMSO_3d) (protein A1KHH0, BCG_1089 (Rv1031), Potassium-transporting ATPase KdpC subunit): 0.7 | Mean Ratio (protein A1KI12 Sec-independent protein translocase protein TatB): 1.27 | Mean_Ratio (GDI5755_3d vs DMSO_3d) (protein A1KI86, BCG_1358 (Rv1298), Large ribosomal subunit protein bL31): 0.7
